In patent US20260200990A1, “MODIFIED LONG PEPTIDES SUITABLE FOR USE IN IMMUNISATION” (ISABELLA PHARMA B.V., priority 2022, published 2026):
Ends that are not written are not given here.

Test system: T cells cultured from PBMC from healthy donors
Assay: T cell induction by PRAME-based SLPs, IFNy ELISpot (test 1 and test 2)
Design: species or system human; key to ELISPOT IFNy / ELISPOT IFNy, summary of the results in the table: − (negative); + (positive); When at least one donor had a positive response, this is denoted as POS
Conditions: for ELISPOT IFNy, summary of the results in the table: Table 5, all donors; for IFNy response in in vitro human T cell cultures: summary over the donors tested
Procedure: The capacity of human-PRAME-based SLPs to activate T cells was studied. The biological activity of the synthesized and purified SLPs was tested using PBMC from healthy donors. Monocytes were isolated using anti-CD14 beads by magnet activated cell sorting (MACS) following the protocol of the supplier (Miltenyi Biotec). In short, PBMCs were isolated by centrifugation over a Ficoll gradient and cryopreserved. To generate dendritic cells (DCs), approximately […] thawed PBMC were used for the isolation of CD14 positive cells. The cells were cultured for three days at 37° C. in 2 ml/well of IMDM 4% human serum (HS) containing 800 U/ml GM-CSF and 500 U/ml IL-4 (Peprotech). After 3 days 1 mL/well of IMDM 4% HS with GM-CSF (2400 U/mL) and IL-4 (1500 U/mL) was added to the monocytes-derived DCs and these adhered cells were cultured for an additional 3 days. On day 6, long peptides distributed over 2 pools were added to monocyte-derived DCs of naive donors at a 13 μM concentration and incubated overnight at 37° C. The next day (day 7) peptide-loaded DCs were harvested, irradiated (1000 rad), washed and mixed in a 1:10 ratio with autologous PBMC in IMDM 8% human serum in the presence of IL-7 (10 ng/ml) and IL-12p70 (100 μg/mL).
On day 10 new DCs were generated and loaded, after 6 days, with SLPs on day 16 as described above. The next day, these peptide-loaded DCs were harvested, irradiated (1000 rad) and washed. Also the cultured T cells were harvested. Both were counted and mixed in a 1:10 ratio (DC:T) in IMDM 8% human serum in the presence of IL-7 (10 ng/ml) and IL-12p70 (100 μg/mL) for the first restimulation. On the same day, new DCs were generated as described above that were loaded with SLPs on day 23 as described above. The next day, peptide-loaded DCs were harvested, irradiated (1000 rad) and washed. Also the cultured and restimulated T cells were harvested. Both were counted and mixed in a 1:10 ratio (DC:T) in IMDM 8% human serum in the presence of IL-7 (10 ng/ml) and IL-12p70 (100 μg/mL) for the second restimulation.
On this day 24, also test 1 was started in which DCs loaded with individual SLPs were cultured with harvested T cells from restimulation 1. For test 1, DCs and harvested T cells were cultured in a 1:10 ratio for 2 days after which cells were transferred to a coated ELISpot plate (see description below). On day 24, new DCs were generated as described above that were loaded with SLPs on day 30 as described above. The next day, peptide-loaded DCs were harvested, irradiated (1000 rad) and washed. Also the cultured twice restimulated T cells were harvested. Both were counted and mixed in a 1:10 ratio (DC:T) in IMDM 8% human serum in the presence of IL-2 (30 IU/mL) and IL-12p70 (100 μg/mL) for the third restimulation.
On day 31, also test 2 was started in which DCs loaded with individual SLPs were cultured with harvested T cells from restimulation 2. For test 2, DCs and harvested T cells were cultured in a 1:10 ratio for 2 days after which cells were transferred to a coated ELISpot plate (see description below).
The T cell cultures were restimulated three times in 1-week cycles using peptide loaded autologous moDCs. After the 2nd and 3rd restimulation, reactivity towards single SLPs was tested (test 1 and test 2, respectively). Reactivity was determined by measuring IFNy production using ELISpot.
For ELISpot analysis, multiscreen plates were coated with an IFNy coating antibody overnight at 4° C. The next day, the plate was washed 4× with PBS and blocking was done using IMDM 8% HS at 37° C. for at least one hour. Each sample was tested in triplicate. As a positive control, phytoheamagglutinin (PHA, 1 μg/mL) was added to cells that were not stimulated with SLP after thawing. The plate was cultured overnight at 37° C. Thereafter, cells were discarded and the plate was washed using PBS/0.05% Tween-20. The IFNy detection antibody was diluted and added to each well and incubated for 2 hours at room temperature. […]

[1] = donor BC298, Test 1, 2 peptide pools
[2] = donor BC298, Test 2, 2 peptide pools
[3] = donor BC305, Test 1, 2 peptide pools
[4] = donor BC305, Test 2, 2 peptide pools
[5] = donor BC306, Test 1, 2 peptide pools
[6] = donor BC306, Test 2, 2 peptide pools
[7] = donor BC312, Test 1, 2 peptide pools
[8] = donor BC312, Test 2, 2 peptide pools
[9] = donor BC321, Test 1, 2 peptide pools
[10] = donor BC321, Test 2, 2 peptide pools
[11] = donor BC228, Test 1, pool of 3 peptides
[12] = donor BC228, Test 2, pool of 3 peptides
[13] = donor BC303, Test 1, pool of 3 peptides
[14] = donor BC303, Test 2, pool of 3 peptides
[15] = donor BC314, Test 1, pool of 3 peptides
[16] = donor BC314, Test 2, pool of 3 peptides
[17] = donor BC320, Test 1, pool of 3 peptides
[18] = donor BC320, Test 2, pool of 3 peptides
[19] = donor BC322, Test 1, pool of 3 peptides
[20] = donor BC322, Test 2, pool of 3 peptides
[21] = donor BC323, Test 1, pool of 3 peptides
[22] = donor BC323, Test 2, pool of 3 peptides
[23] = donor BC290, Test 1, 2 peptide pools
[24] = donor BC290, Test 2, 2 peptide pools
[25] = donor BC315, Test 1, 2 peptide pools
[26] = donor BC315, Test 2, 2 peptide pools

| Sequence | ELISPOT IFNy, summary of the results in the table | ELISPOT IFNy [1] | ELISPOT IFNy [2] | ELISPOT IFNy [3] | ELISPOT IFNy [4] | ELISPOT IFNy [5] | ELISPOT IFNy [6] | ELISPOT IFNy [7] | ELISPOT IFNy [8] | ELISPOT IFNy [9] | ELISPOT IFNy [10] | ELISPOT IFNy [11] | ELISPOT IFNy [12] | ELISPOT IFNy [13] | ELISPOT IFNy [14] | ELISPOT IFNy [15] | ELISPOT IFNy [23] | ELISPOT IFNy [24] | ELISPOT IFNy [25] | ELISPOT IFNy [26] | other results |
| --- | --- | --- | --- | --- | --- | --- | --- | --- | --- | --- | --- | --- | --- | --- | --- | --- | --- | --- | --- | --- | --- |
| ALYVDSLFFLRGRLDQLLRHVMNPLETLSITNCRL (ALYVDSLFFLRGRLDQLLRHVMNPLETLSITNC(cysteinyl)RL; listed as Homo sapiens) [SEQ ID NO: 40, PRAME-based SLP, cysteinylated form tested] | POS | − | − | − | − | − | − | − | − | + | + |  |  |  |  |  |  |  |  |  |  |
| KEGACDELFSYLIEKVKRKKNVLRL (KEGAC(cysteinyl)DELFSYLIEKVKRKKNVLRL; listed as Homo sapiens) [SEQ ID NO: 39, PRAME-based SLP, cysteinylated form tested] |  | − | − | − | − | − | − | − | − | − | − | − | − | − | − | + |  |  |  |  | ELISPOT IFNy [16]: +; ELISPOT IFNy [17]: −; ELISPOT IFNy [18]: −; ELISPOT IFNy [19]: −; ELISPOT IFNy [20]: −; ELISPOT IFNy [21]: −; ELISPOT IFNy [22]: −; IFNy response in in vitro human T cell cultures: positive IFNy response |
| LETFKAVLDGLDVLLAQEVRPRRWKLQVLDLRK (listed as Homo sapiens) [SEQ ID NO: 45, PRAME-based SLP of WO2008118017, reference compound] |  | − | − | − | − | − | − | − | − | − | − | − | − | − | − | − |  |  |  |  | ELISPOT IFNy [16]: −; ELISPOT IFNy [17]: −; ELISPOT IFNy [18]: −; ELISPOT IFNy [19]: −; ELISPOT IFNy [20]: −; ELISPOT IFNy [21]: −; ELISPOT IFNy [22]: −; IFNy response in in vitro human T cell cultures: did not show convincing responses |
| LKAMVQAWPFTCLPLGVLMKGQHLHLETFKAVL (LKAMVQAWPFTC(cysteinyl)LPLGVLMKGQHLHLETFKAVL; listed as Homo sapiens) [SEQ ID NO: 38, PRAME-based SLP, cysteinylated form tested] | POS | + | + | − | − | − | − | − | − | + | − |  |  |  |  |  | − | − | − | − |  |
| LLPRELFPPLFMAAFDGRHSQTLKAMVQAWPF (listed as Homo sapiens) [SEQ ID NO: 43, PRAME-based SLP] |  | − | − | − | − | − | − | − | − | + | − |  |  |  |  |  |  |  |  |  |  |
| LPSLSHCSQLTTLSFYGNSISISALQSLLQHLIGL (LPSLSHC(cysteinyl)SQLTTLSFYGNSISISALQSLLQHLIGL; listed as Homo sapiens) [SEQ ID NO: 44, PRAME-based SLP, cysteinylated form tested] |  | − | + | − | − | − | − | − | − | + | − |  |  |  |  |  |  |  |  |  |  |
| PTLAKFSPYLGQMINLRRLLLSHIHASSYISPE (listed as Homo sapiens) [SEQ ID NO: 37, PRAME-based SLP] |  | − | − | + | − | − | − | − | − | − | − |  |  |  |  |  | + | + | − | − |  |
| VLSLSGVMLTDVSPEPLQALLERASATLQDLVFDE (listed as Homo sapiens) [SEQ ID NO: 50, PRAME-based SLP of WO2008118017, reference compound] |  | − | − | − | − | − | − | − | − | − | − | − | − | − | − | − | − | − | − | − | ELISPOT IFNy [16]: −; ELISPOT IFNy [17]: −; ELISPOT IFNy [18]: −; ELISPOT IFNy [19]: −; ELISPOT IFNy [20]: −; ELISPOT IFNy [21]: −; ELISPOT IFNy [22]: −; IFNy response in in vitro human T cell cultures: did not show convincing responses |
| VLYPVPLESYEDIHGTLHLERLAYLHARLREL (listed as Homo sapiens) [SEQ ID NO: 41, PRAME-based SLP] | POS | − | − | − | − | − | − | − | − | − | − |  |  |  |  |  | − | − | + | + |  |
